{
  "source": "patent US6384254B1",
  "about": "“Quaternary ammonium salt-containing polysiloxane, making method, and fiber or fabric treating agent composition” (Shin-Etsu Chemical Co., Ltd., priority 1999, dated 2002)",
  "test_system": "stephelococcus Aureus",
  "assay": "percentage loss of bacteria on treated cloth after ten launderings, shaking flask method",
  "assay_type": "cell-based",
  "settings": "polyester/cotton (65%/35%) cloth dipped in treating bath (2.0 wt% silicone solids; CE1 3.5 wt% solids), laundered ten times by 103 method of JIS L-0217",
  "description": "The emulsion was diluted to an aqueous solution having a silicone solid concentration of 2.0% by weight. A polyester/cotton (65%/35%) mixed broad-cloth was dipped in the solution for one minute, nipped through rolls at a nip rate of 100%, dried at 135° C. for one minute and heat treated at 165° C. for 2 minutes. The thus treated cloth was laundered ten times in accordance with the 103 method of JIS L-0217 whereupon a percentage loss of stephelococcus Aureus was compared by the shaking flask method. The texture of the treated cloth was examined by finger touch before and after washing.\nFor comparison purpose, using a 38% solids methanol solution of 3-(trimethoxysilyl)propyldimethyloctadecylammonium chloride, a 3.5 wt% solids aqueous solution was prepared. A similar experiment was carried out. This is Comparative Example 1.",
  "data": [
    {"smiles": "CCCCCCCCCCCCCCCCCC[N+](C)(C)CCC[Si](OC)(OC)OC.[Cl-]", "note": "[CE1, 3-(trimethoxysilyl)propyldimethyloctadecylammonium chloride]", "values": [
      {"measurement": "Bacteria loss after washing (%)", "value": 35, "unit": "%"}
    ]}
  ]
}
